According to patent publication US20250215029A1 (Recludix Pharma, Inc., priority 2022, published 2025):
Where two headings read alike, the source gives them in different places.

Experiments:
[1] = target: T1, Recombinant STAT3 protein (STAT3 (G127-I722)) (Homo sapiens, UniProt P40763); assay: STAT3 Fluorescence Polarization (FP) Assay; format: binding; conditions: probe 5-FAM-GpYLPQTV-NH2 2 nM, 45-minute incubation
T1 construct: Recombinant STAT3 protein (STAT3 (G127-I722))
In short: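 Displacement of a fluorescent phosphotyrosine peptide (5-FAM-GpYLPQTV-NH2, 2 nM) from 25 nM recombinant STAT3 G127-I722 was monitored by FP after 45 min at room temperature.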

[2] = target: T2, Recombinant STAT6 protein (STAT6 (W123-T658)) (Homo sapiens, UniProt P42226); assay: STAT6 Fluorescence Polarization (FP) Assay; format: binding; conditions: probe 5-FAM-Ap[…]-NH2 2 nM, 45-minute incubation
T2 construct: Recombinant STAT6 protein (STAT6 (W123-T658))
T2 sequence (P42226 123-658): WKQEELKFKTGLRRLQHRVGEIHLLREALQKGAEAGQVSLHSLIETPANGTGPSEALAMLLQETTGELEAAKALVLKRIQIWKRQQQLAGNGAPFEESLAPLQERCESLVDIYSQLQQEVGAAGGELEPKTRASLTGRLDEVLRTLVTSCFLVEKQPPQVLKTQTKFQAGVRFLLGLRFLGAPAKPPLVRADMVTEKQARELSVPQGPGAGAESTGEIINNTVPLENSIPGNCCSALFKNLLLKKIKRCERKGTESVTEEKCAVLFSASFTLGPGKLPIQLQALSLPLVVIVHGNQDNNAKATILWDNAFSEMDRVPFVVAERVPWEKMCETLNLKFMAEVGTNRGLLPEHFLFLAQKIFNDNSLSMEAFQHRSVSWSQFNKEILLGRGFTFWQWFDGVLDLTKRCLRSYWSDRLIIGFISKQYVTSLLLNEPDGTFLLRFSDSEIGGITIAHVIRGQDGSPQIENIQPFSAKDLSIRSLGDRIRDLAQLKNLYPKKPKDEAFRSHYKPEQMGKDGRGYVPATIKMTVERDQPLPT
In short: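 Fluorescence polarization (mP) read-out: 250 nM STAT6 (W123-T658) plus 2 nM 5-FAM phosphotyrosine peptide, 45 min, room temperature, 1% DMSO. IC50 by nonlinear fit of mP against log compound concentration.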

[3] = STAT3 (G127-I722) 25 nM, read-out: STAT3 (FP assay IC50 class)
[4] = STAT6 (W123-T658) 250 nM, read-out: STAT6 (FP assay IC50 class)
[5] = STAT3 25 nM, read-out: STAT3 (FP assay IC50)
[6] = STAT6 250 nM, read-out: STAT6 (FP assay IC50)

T1 sequence (P40763 127-722): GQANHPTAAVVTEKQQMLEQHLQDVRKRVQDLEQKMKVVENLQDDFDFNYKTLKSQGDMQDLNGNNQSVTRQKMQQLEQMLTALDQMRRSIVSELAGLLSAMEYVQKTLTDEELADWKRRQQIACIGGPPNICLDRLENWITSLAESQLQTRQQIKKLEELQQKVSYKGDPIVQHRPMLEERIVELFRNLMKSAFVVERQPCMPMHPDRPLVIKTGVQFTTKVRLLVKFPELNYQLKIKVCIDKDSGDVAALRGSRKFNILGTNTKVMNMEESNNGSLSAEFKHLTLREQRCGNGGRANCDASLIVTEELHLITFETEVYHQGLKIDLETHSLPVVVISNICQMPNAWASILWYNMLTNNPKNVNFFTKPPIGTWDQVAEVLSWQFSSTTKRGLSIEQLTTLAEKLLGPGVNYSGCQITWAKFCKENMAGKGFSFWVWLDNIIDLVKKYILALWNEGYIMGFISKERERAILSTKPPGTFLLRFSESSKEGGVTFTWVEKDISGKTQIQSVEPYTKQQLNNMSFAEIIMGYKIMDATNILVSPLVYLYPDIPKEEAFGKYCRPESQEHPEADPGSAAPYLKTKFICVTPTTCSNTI

Row | SMILES | IC50 [1, 3] [µM] | IC50 [2, 4] [µM] | IC50 [1, 5] [µM] | IC50 [2, 6] [µM]
1 | COc1c(Cl)cncc1C1CN(C(=O)[C@@H]2CC[C@@H]3CCC[C@H](NC(=O)c4cc5cc(C(F)P(=O)(O)O)ccc5s4)C(=O)N32)C1 (stereo partly drawn) [Compound 682, ((2-(((3S,6S,9aS)-3-(3-(5-chloro-4-methoxypyridin-3-yl)azetidine-1-carbonyl)-5-oxooctahydro-1H-pyrrolo[1,2-a]azepin-6-yl)carbamoyl)benzo [b]thiophen-5-yl)fluoromethyl) phosphonic acid] | 0.1 to 1 | 3 to 30 | – | –
2 | COC1CN(c2ccncc2C2CN(C(=O)[C@@H]3CC[C@@H]4C[C@H](C)C[C@H](NC(=O)c5cc6cc(CP(=O)(O)O)ccc6s5)C(=O)N43)C2)C1 [Compound 933, ((2-(((3S,6S,8R,9aR)-3-(3-(4-(3-methoxyazetidin-1-yl)pyridin-3-yl)azetidine-1-carbonyl)-8-methyl-5-oxooctahydro-1H-pyrrolo[1,2-a]azepin-6-yl)carbamoyl)benzo [b]thiophen-5-yl)methyl) phosphonic acid] | < 0.1 | 3 to 30 | – | –
3 | O=C(N[C@H]1CCC[C@H]2CC[C@@H](C(=O)N3CC(c4cnccc4Cl)C3)N2C1=O)c1cc2cc(CP(=O)(O)O)ccc2s1 [Compound 519, ((2-(((3S,6S,9aS)-3-(3-(4-chloropyridin-3-yl)azetidine-1-carbonyl)-5-oxooctahydro-1H-pyrrolo[1,2-a]azepin-6-yl)carbamoyl)benzo[b]thiophen-5-yl)methyl)phosphonic acid] | 1 to 10 | 3 to 30 | – | –
4 | Cn1cc(C2CN(C(=O)[C@@H]3CC[C@@H]4CCC[C@H](NC(=O)c5cc6cc(C(F)P(=O)(O)O)ccc6s5)C(=O)N43)C2)cn1 (stereo partly drawn) [Compound 716, (fluoro(2-(((3S,6S,9aS)-3-(3-(1-methyl-1H-pyrazol-4-yl)azetidine-1-carbonyl)-5-oxooctahydro-1H-pyrrolo[1,2-a]azepin-6-yl)carbamoyl)benzo [b]thiophen-5-yl)methyl) phosphonic acid] | 1 to 10 | 3 to 30 | – | –
5 | O=C(N[C@H]1C=CC[C@H]2CC[C@@H](C(=O)Nc3ccc(-c4ccccc4)cc3)N2C1=O)c1cc2cc(C(F)(F)P(=O)(O)O)ccc2s1 [Compound 97, ((2-(((3S,6S,9aR)-3-([1,1′-biphenyl]-4-ylcarbamoyl)-5-oxo-2,3,5,6,9,9a-hexahydro-1H-pyrrolo[1,2-a]azepin-6-yl)carbamoyl)benzo[b]thiophen-5-yl)difluoromethyl) phosphonic acid] | – | – | 0.1 to 1 | 0.3 to 3
6 | CCc1ccncc1C1CN(C(=O)[C@@H]2CC[C@@H]3CCC[C@H](NC(=O)c4cc5cc(CP(=O)(O)O)ccc5s4)C(=O)N32)C1 [Compound 503, ((2-(((3S,6S,9aS)-3-(3-(4-ethylpyridin-3-yl)azetidine-1-carbonyl)-5-oxooctahydro-1H-pyrrolo[1,2-a]azepin-6-yl)carbamoyl)benzo[b]thiophen-5-yl)methyl)phosphonic acid] | 0.1 to 1 | 3 to 30 | – | –
7 | O=C(N[C@H]1CCCC[C@H]2CC[C@@H](C(=O)N3CC(C(=O)N4CCOCC4)C3)N2C1=O)c1cc2cc(C(F)(F)P(=O)(O)O)ccc2s1 [Compound 93, (difluoro(2-(((3S,6S,10aS)-3-(3-(morpholine-4-carbonyl)azetidine-1-carbonyl)-5-oxodecahydropyrrolo [1,2-a]azocin-6-yl)carbamoyl)benzo[b]thiophen-5-yl)methyl) phosphonic acid] | – | – | 0.1 to 1 | 3 to 30
8 | COCCNC1(c2ccccn2)CN(C(=O)[C@@H]2CC[C@@H]3CCCC[C@H](NC(=O)c4cc5cc(C(F)P(=O)(O)O)ccc5s4)C(=O)N32)C1 (stereo partly drawn) [Compound 568, (fluoro(2-(((3S,6S,10aS)-3-(3-((2-methoxyethyl)amino)-3-(pyridin-2-yl)azetidine-1-carbonyl)-5-oxodecahydropyrrolo[1,2-a]azocin-6-yl)carbamoyl)benzo[b]thiophen-5-yl)methyl)phosphonic acid] | < 0.1 | 3 to 30 | – | –
